#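 48-hour exposure; five concentrations; linearly interpolated endpoints. GI50 is the concentration that inhibits growth by half. Definition used: TGI = concentration required for complete inhibition of growth.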
# Legend:
# Experiment in all cases: NCI anticancer screen, dose series, 48 h
# SK-MEL-2 melanoma = system: SK-MEL-2 melanoma
# MALME-3M melanoma = system: MALME-3M melanoma
# K-562 leukemia = system: K-562 leukemia
# DU-145 prostate = system: DU-145 prostate
# NCI-H522 lung = system: NCI-H522 lung
# RXF 393 renal = system: RXF 393 renal
# LOX IMVI melanoma = system: LOX IMVI melanoma
# OVCAR-8 ovarian = system: OVCAR-8 ovarian
# SK-MEL-5 melanoma = system: SK-MEL-5 melanoma
# T-47D breast = system: T-47D breast
# UACC-257 melanoma = system: UACC-257 melanoma
# SF-295 CNS = system: SF-295 CNS
# IGROV1 ovarian = system: IGROV1 ovarian
# SR leukemia = system: SR leukemia
# MCF7 breast = system: MCF7 breast
# OVCAR-4 ovarian = system: OVCAR-4 ovarian
# NCI-H460 lung = system: NCI-H460 lung
# OVCAR-5 ovarian = system: OVCAR-5 ovarian
# CAKI-1 renal = system: CAKI-1 renal
# A549 NSCLC = system: A549 NSCLC
# SF-539 CNS = system: SF-539 CNS
# PC-3 prostate = system: PC-3 prostate
# MOLT-4 leukemia = system: MOLT-4 leukemia
# HT29 colon = system: HT29 colon
# EKVX NSCLC = system: EKVX NSCLC
# HCT-15 colon = system: HCT-15 colon
# CCRF-CEM leukemia = system: CCRF-CEM leukemia
# HS 578T breast = system: HS 578T breast
# SNB-19 CNS = system: SNB-19 CNS
# BT-549 breast = system: BT-549 breast
# HOP-92 NSCLC = system: HOP-92 NSCLC
# NCI-H23 lung = system: NCI-H23 lung
# COLO 205 colon = system: COLO 205 colon
# SW-620 colon = system: SW-620 colon
# SN12C renal = system: SN12C renal
# MDA-MB-435 = system: MDA-MB-435
# 786-0 renal = system: 786-0 renal
# TK-10 renal = system: TK-10 renal
# U251 CNS = system: U251 CNS
# UO-31 renal = system: UO-31 renal
# SK-MEL-28 melanoma = system: SK-MEL-28 melanoma
# HOP-62 NSCLC = system: HOP-62 NSCLC
# OVCAR-3 ovarian = system: OVCAR-3 ovarian
# MDA-MB-231 breast = system: MDA-MB-231 breast
# RPMI-8226 leukemia = system: RPMI-8226 leukemia
# KM12 colon = system: KM12 colon
# A498 renal = system: A498 renal
# ACHN renal = system: ACHN renal
# NCI/ADR-RES ovarian = system: NCI/ADR-RES ovarian
# SF-268 CNS = system: SF-268 CNS
# HL-60(TB) leukemia = system: HL-60(TB) leukemia
# UACC-62 melanoma = system: UACC-62 melanoma
# HCC-2998 colon = system: HCC-2998 colon
# NCI-H226 lung = system: NCI-H226 lung
# HCT-116 colon = system: HCT-116 colon
# M14 melanoma = system: M14 melanoma
# SNB-75 CNS = system: SNB-75 CNS
# SK-OV-3 ovarian = system: SK-OV-3 ovarian
# MDA-N = system: MDA-N
smiles,measurement,setting,value
COc1ccc(-c2nn(-c3cccc(Cl)c3)cc2-c2c(C#N)c(=O)n3[nH]c(-c4ccc(C)o4)nc3c2C#N)cc1,GI50,SK-MEL-2 melanoma,6.57 µM
same,TGI,SK-MEL-2 melanoma,18.1 µM
same,GI50,MALME-3M melanoma,7.88 µM
same,TGI,MALME-3M melanoma,41.1 µM
same,GI50,K-562 leukemia,4.09 µM
same,TGI,K-562 leukemia,> 50 µM
same,GI50,DU-145 prostate,19.1 µM
same,TGI,DU-145 prostate,> 50 µM
same,GI50,NCI-H522 lung,4.96 µM
same,TGI,NCI-H522 lung,23.1 µM
same,GI50,RXF 393 renal,4.11 µM
same,TGI,RXF 393 renal,> 50 µM
same,GI50,LOX IMVI melanoma,3.92 µM
same,TGI,LOX IMVI melanoma,12.3 µM
same,GI50,OVCAR-8 ovarian,5.91 µM
same,TGI,OVCAR-8 ovarian,> 50 µM
same,GI50,SK-MEL-5 melanoma,5.64 µM
same,TGI,SK-MEL-5 melanoma,12.4 µM
same,GI50,T-47D breast,2.77 µM
same,TGI,T-47D breast,33.8 µM
same,GI50,UACC-257 melanoma,8.45 µM
same,TGI,UACC-257 melanoma,> 50 µM
same,GI50,SF-295 CNS,3.46 µM
same,TGI,SF-295 CNS,> 50 µM
same,GI50,IGROV1 ovarian,2.6 µM
same,TGI,IGROV1 ovarian,18.5 µM
same,GI50,SR leukemia,4.22 µM
same,TGI,SR leukemia,22.1 µM
same,GI50,MCF7 breast,1.75 µM
same,TGI,MCF7 breast,> 50 µM
same,GI50,OVCAR-4 ovarian,6.59 µM
same,TGI,OVCAR-4 ovarian,> 50 µM
same,GI50,NCI-H460 lung,6.38 µM
same,TGI,NCI-H460 lung,> 50 µM
same,GI50,OVCAR-5 ovarian,13.6 µM
same,TGI,OVCAR-5 ovarian,> 50 µM
same,GI50,CAKI-1 renal,6.8 µM
same,TGI,CAKI-1 renal,> 50 µM
same,GI50,A549 NSCLC,4.57 µM
same,TGI,A549 NSCLC,> 50 µM
same,GI50,SF-539 CNS,5.67 µM
same,TGI,SF-539 CNS,> 50 µM
same,GI50,PC-3 prostate,2.25 µM
same,TGI,PC-3 prostate,> 50 µM
same,GI50,MOLT-4 leukemia,3.23 µM
same,TGI,MOLT-4 leukemia,24.3 µM
same,GI50,HT29 colon,7.21 µM
same,TGI,HT29 colon,33.6 µM
same,GI50,EKVX NSCLC,1.54 µM
same,TGI,EKVX NSCLC,40.8 µM
same,GI50,HCT-15 colon,16.6 µM
same,TGI,HCT-15 colon,> 50 µM
same,GI50,CCRF-CEM leukemia,2.45 µM
same,TGI,CCRF-CEM leukemia,> 50 µM
same,GI50,HS 578T breast,2.95 µM
same,TGI,HS 578T breast,> 50 µM
same,GI50,SNB-19 CNS,8.63 µM
same,TGI,SNB-19 CNS,> 50 µM
same,GI50,BT-549 breast,4.19 µM
same,TGI,BT-549 breast,43.5 µM
same,GI50,HOP-92 NSCLC,0.463 µM
same,TGI,HOP-92 NSCLC,3.44 µM
same,GI50,NCI-H23 lung,8.09 µM
same,TGI,NCI-H23 lung,> 50 µM
same,GI50,COLO 205 colon,5.47 µM
same,TGI,COLO 205 colon,11.6 µM
same,GI50,SW-620 colon,9.21 µM
same,TGI,SW-620 colon,> 50 µM
same,GI50,SN12C renal,5.3 µM
same,TGI,SN12C renal,> 50 µM
same,GI50,MDA-MB-435,4.44 µM
same,TGI,MDA-MB-435,30.1 µM
same,GI50,786-0 renal,9.42 µM
same,TGI,786-0 renal,> 50 µM
same,GI50,TK-10 renal,12.4 µM
same,TGI,TK-10 renal,> 50 µM
same,GI50,U251 CNS,4.71 µM
same,TGI,U251 CNS,> 50 µM
same,GI50,UO-31 renal,1.8 µM
same,TGI,UO-31 renal,38.9 µM
same,GI50,SK-MEL-28 melanoma,5.51 µM
same,TGI,SK-MEL-28 melanoma,21.1 µM
same,GI50,HOP-62 NSCLC,14.1 µM
same,TGI,HOP-62 NSCLC,> 50 µM
same,GI50,OVCAR-3 ovarian,5.68 µM
same,TGI,OVCAR-3 ovarian,19 µM
same,GI50,MDA-MB-231 breast,4.7 µM
same,TGI,MDA-MB-231 breast,36.9 µM
same,GI50,RPMI-8226 leukemia,5.68 µM
same,TGI,RPMI-8226 leukemia,> 50 µM
same,GI50,KM12 colon,3.54 µM
same,TGI,KM12 colon,> 50 µM
same,GI50,A498 renal,1.55 µM
same,TGI,A498 renal,10.7 µM
same,GI50,ACHN renal,7.61 µM
same,TGI,ACHN renal,> 50 µM
same,GI50,NCI/ADR-RES ovarian,> 50 µM
same,TGI,NCI/ADR-RES ovarian,> 50 µM
same,GI50,SF-268 CNS,5.23 µM
same,TGI,SF-268 CNS,> 50 µM
same,GI50,HL-60(TB) leukemia,4.88 µM
same,TGI,HL-60(TB) leukemia,23.5 µM
same,GI50,UACC-62 melanoma,6.46 µM
same,TGI,UACC-62 melanoma,42.7 µM
same,GI50,HCC-2998 colon,7.43 µM
same,TGI,HCC-2998 colon,45.7 µM
same,GI50,NCI-H226 lung,7.35 µM
same,TGI,NCI-H226 lung,> 50 µM
same,GI50,HCT-116 colon,2.53 µM
same,TGI,HCT-116 colon,22.5 µM
same,GI50,M14 melanoma,5.49 µM
same,TGI,M14 melanoma,22.4 µM
same,GI50,SNB-75 CNS,1.56 µM
same,TGI,SNB-75 CNS,> 50 µM
same,GI50,SK-OV-3 ovarian,11.7 µM
same,TGI,SK-OV-3 ovarian,> 50 µM
CN(C)CCCNC(=O)N/N=C/c1ccccn1,TGI,MALME-3M melanoma,> 10 µM
same,TGI,K-562 leukemia,> 10 µM
same,TGI,DU-145 prostate,> 10 µM
same,TGI,MDA-N,> 10 µM
same,TGI,NCI-H522 lung,> 10 µM
same,TGI,RXF 393 renal,> 10 µM
same,TGI,LOX IMVI melanoma,> 10 µM
same,TGI,OVCAR-8 ovarian,> 10 µM
same,TGI,SK-MEL-5 melanoma,> 10 µM
same,TGI,T-47D breast,> 10 µM
same,TGI,UACC-257 melanoma,> 10 µM
same,TGI,SF-295 CNS,> 10 µM
same,TGI,IGROV1 ovarian,> 10 µM
same,TGI,SR leukemia,> 10 µM
same,TGI,MCF7 breast,> 10 µM
same,TGI,OVCAR-4 ovarian,> 10 µM
same,TGI,NCI-H460 lung,> 10 µM
same,TGI,OVCAR-5 ovarian,> 10 µM
same,TGI,A549 NSCLC,> 10 µM
same,TGI,SF-539 CNS,> 10 µM
same,TGI,PC-3 prostate,> 10 µM
same,TGI,MOLT-4 leukemia,> 10 µM
same,TGI,HT29 colon,> 10 µM
same,TGI,EKVX NSCLC,> 10 µM
same,TGI,HCT-15 colon,> 10 µM
same,TGI,CCRF-CEM leukemia,> 10 µM
same,TGI,HS 578T breast,> 10 µM
same,TGI,HOP-92 NSCLC,> 10 µM
same,TGI,COLO 205 colon,> 10 µM
same,TGI,SW-620 colon,> 10 µM
same,TGI,SN12C renal,> 10 µM
same,TGI,TK-10 renal,> 10 µM
same,TGI,UO-31 renal,> 10 µM
same,TGI,SK-MEL-28 melanoma,> 10 µM
same,TGI,HOP-62 NSCLC,> 10 µM
same,TGI,MDA-MB-231 breast,> 10 µM
same,TGI,RPMI-8226 leukemia,> 10 µM
same,TGI,KM12 colon,> 10 µM
same,TGI,A498 renal,> 10 µM
same,TGI,ACHN renal,> 10 µM
same,TGI,NCI/ADR-RES ovarian,> 10 µM
same,TGI,SF-268 CNS,> 10 µM
same,TGI,HL-60(TB) leukemia,> 10 µM
same,TGI,UACC-62 melanoma,> 10 µM
same,TGI,HCC-2998 colon,> 10 µM
same,TGI,HCT-116 colon,> 10 µM
same,TGI,M14 melanoma,> 10 µM
same,TGI,SNB-75 CNS,> 10 µM
same,TGI,SK-OV-3 ovarian,> 10 µM

# From PubChem BioAssay (NCI)
